Reference: patent US20240335464A1, “ADMINISTRATION OF STING AGONIST, CHECKPOINT INHIBITORS, AND RADIATION” (Takeda Pharmaceutical Company Limited, priority 2020, published 2024)

Tested on: EMT6 mouse breast carcinoma syngeneic tumor
Experiment: Study 1: EMT6 mouse syngeneic tumor model, subcutaneous, anti-tumor efficacy
Assay type: in vivo, female BALB/c mice
Conditions: for GRI (%) Day 19: vs vehicle; for Number of Complete Regressions: n=10/group, 72-day study; for Combination Assessment / Synergy Score %: data through Day 19
Source text: Studies 1 and 2: EMT6 is a mouse breast carcinoma cell line. EMT6 mouse syngeneic tumor model was generated by subcutaneous (sc) inoculation with 0.2×10^6 EMT6 cells (cell suspension) in nine to ten week old female BALB/c mice (Vital River Laboratory Animal Technology Co., Ltd., Beijing, China) in the flank. When the mean tumor volume reached 60 mm^3 in Study 1 and 75 mm^3 in Study 2 the animals were randomized into one vehicle control and seven treatment groups (n=10/group). Mice were then dosed with vehicle (phosphate buffered saline (PBS)) or Compound No. 14 or 10 Gy Radiation or Compound No. 14 plus 10 Gy Radiation over an eight-day period. Tumor growth and body weight were measured three times per week during the treatment and post-treatment periods. Mice were humanely euthanized once they reached their humane endpoint or until study termination on day 72 (Study 1) or on day 60 (Study 2).
Studies 1 and 2: A 0.1 mg/mL stock solution of Compound No. 14 was formulated in PBS and administered intravenously (IV) based on exact animal body weight on each day of treatment, using a dosing volume of 10 mL/kg body weight. Final doses received were 1.0 mg/kg. […] Compound No. 14 was administered on a Q3D schedule for 3 doses (Day 2, 5 and 8) in single agent treatment group and in combination treatment groups. Dose formulation of Compound No. 14 was prepared once and utilized for dosing on Days 2, 5 and 8.
Radiation treatment for Studies 1 and 2 was performed using RadSource RS 2000 X-ray irradiator (Rad Source Technologies). Animals received 1.046 Gy/minute of radiation and approximately 9.5 min was needed to reach a 10 Gy dose delivery. Animals were anesthetized prior to placement in irradiation chamber using isoflurane and checked for reflexes. Radiation beam was focused on tumor with manual positioning. Radiation was administered via manual positioning in a single 10 Gy dose on either day 0, 2 or 4 in Study 1, and on either day 0, 1, 2, 3 or 4 in Study 2.
Tumors were measured three times weekly using vernier calipers. Tumor volumes were calculated using standard equation: V=W^2×L/2, where V=volume, W=width, and L=length for the tumor. When mean tumor volumes reached approximately 60 mm^3 for Study 1, 75 mm^3 for Study 2, and 110 mm^3 for Study 3, mice were randomized into eight groups (n=10/group) in Studies 1 and 2, and nine groups (n=8/group) in Study 3. These groups were then dosed with vehicle (PBS), Compound No. 14, Radiation, anti-mPD-1 or isotype control, or combinations of these agents as described in Tables 1a, 2a, and 3a. Tumor size and body weight were measured three times a week for the duration of each study. Mice were euthanized for Studies 1 and 2 when their tumor volumes reached greater than 10% of their body weight or when an individual tumor exceeded the humane end-point for size (>2 cm) or when an animal lost 20% of their body weight relative to the start of the study or lost 15% of their body weight in any 24 hr time frame. Mice were euthanized in Study 3 when tumor volume exceeded 2,000 mm^3 or an animal lost more than 20% of their body weight relative to the start of study.
Growth Rate Inhibition: The differences in the tumor growth trends over time between pairs of treatment groups were assessed by fitting each animal's data to a simple exponential growth model and comparing the mean growth rates of the two groups, as described in more detail below. The difference in the growth rates was summarized by the GRI, which is the reduction in growth rate experienced by the treatment group relative to that of the reference group, expressed as a fraction of the vehicle growth rate.
μT and μC are the mean tumor growth rates for the treatment and reference groups, respectively. μV is the mean tumor growth rate for the vehicle group, which in most cases is the same as the reference group.
A GRI greater than 100% is interpreted as tumor regression when the vehicle group is the same as the reference group. […]

[1] = Compound No. 14 1.0 mg/kg IV Q3D×3 + 10Gy Radiation (Day 0)
[2] = Compound No. 14 1.0 mg/kg IV Q3D×3 + 10Gy Radiation (Day 2)
[3] = Compound No. 14 1.0 mg/kg IV Q3D×3 + 10Gy Radiation (Day 4)
[4] = Compound No. 14 + Radiation (10 Gy) Day 0
[5] = Compound No. 14 + Radiation (10 Gy) Day 2
[6] = Compound No. 14 + Radiation (10 Gy) Day 4

## Nc1ncnc2c1ncn2[C@@H]1O[C@@H]2COP(=O)(S)O[C@@H]3[C@H](O)[C@@H](COP(=O)(S)O[C@H]2[C@H]1F)O[C@H]3n1cc(F)c2c(=O)[nH]cnc21 (stereo partly drawn) [Compound No. 14]
Compound No. 14 1.0 mg/kg IV Q3D×3 (Days 2, 5, 8), single agent
  GRI (%) Day 19: 30%
[1]
  Number of Complete Regressions: 1
  GRI (%) Day 19: 82%
[2]
  Number of Complete Regressions: 1
  GRI (%) Day 19: 60%
[3]
  Number of Complete Regressions: 2
  GRI (%) Day 19: 67%
Compound No. 14 1.0 mg/kg IV Q3D×3, single agent
  Number of Complete Regressions: 0
[4]
  Combination Assessment: Additive
  Synergy Score %: −20%
[5]
  Combination Assessment: Additive
  Synergy Score %: 7%
[6]
  Combination Assessment: additive
  Synergy Score %: −10%
Compound No. 14 + Radiation (10 Gy) Day 4, listed as Compound No.14
  Combination Assessment: Additive
